Reference: patent publication US20060003924A1, “Sulfation-independent L-selectin or E-selectin ligand (HCELL) and therapeutics thereof” (priority 1994, published 2006)
“Also recorded” adds a separate entry of the source. Read-outs that look alike come from different tables or passages of the source.

Key:
KG1a [1] = assay: Lymphocyte adherence assay on KG1a cytocentrifuge preparations (Examples 2-6); format: cell-based, human; conditions: for return of binding activity following desialylation: KG1a after neuraminidase
E-selectin = biological target: T1, E-selectin (Homo sapiens, UniProt P16581); assay: E-selectin ligand activity of immunoprecipitated proteins (CHO-E cell rolling); format: cell-based; conditions: for E-selectin-mediated CHO-E cell rolling on immunoprecipitated protein spotted onto plastic dishes: 3.8 dynes/cm^2
T1 construct: expressed in transfected cells; host or cells: CHO cells (CHO-E)
T1 sequence (P16581 22-610): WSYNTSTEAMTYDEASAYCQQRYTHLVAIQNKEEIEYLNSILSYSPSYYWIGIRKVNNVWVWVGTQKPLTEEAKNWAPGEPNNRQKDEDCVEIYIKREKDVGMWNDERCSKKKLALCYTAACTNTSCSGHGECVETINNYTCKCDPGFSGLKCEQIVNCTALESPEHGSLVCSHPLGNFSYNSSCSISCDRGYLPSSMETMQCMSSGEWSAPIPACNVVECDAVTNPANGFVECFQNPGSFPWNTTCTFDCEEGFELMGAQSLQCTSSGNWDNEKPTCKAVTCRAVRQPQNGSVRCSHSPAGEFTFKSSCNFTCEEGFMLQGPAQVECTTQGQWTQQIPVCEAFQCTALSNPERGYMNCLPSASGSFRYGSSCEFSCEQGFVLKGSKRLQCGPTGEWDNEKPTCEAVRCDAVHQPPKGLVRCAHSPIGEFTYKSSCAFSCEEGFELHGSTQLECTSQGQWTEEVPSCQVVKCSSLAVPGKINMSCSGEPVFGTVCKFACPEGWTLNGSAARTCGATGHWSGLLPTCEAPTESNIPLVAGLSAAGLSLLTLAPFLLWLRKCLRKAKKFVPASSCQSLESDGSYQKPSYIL

CD43 = assay: Flow cytometry of sialic acid-dependent L60 epitope of CD43 on KG1a after neuraminidase; format: cell-based, human; conditions: KG1a cultured with the agent
KG1a cells = assay: Stamper-Woodruff lymphocyte adherence assay on KG1a cytospins (Example 9); format: cell-based, human; conditions: for L-selectin ligand Activity of KG1a Cells Following Protease or Phospholipase C Treatment, % Control Binding: enzymatic treatment of cells in suspension before cytocentrifugation
KG1a CD44 = biological target: T2, KG1a CD44 (Homo sapiens, UniProt P16070); assay: CHO-E cell rolling over blotted or spotted KG1a membrane proteins / immunoprecipitated CD44; format: cell-based; conditions: 3.8 dynes/cm^2
T2 construct: was immunoprecipitated from KG1a membrane protein (50 μg); endogenous in cells; host or cells: KG1a cells (membrane preparation, Hermes-1 immunoprecipitate)

[2] = tested on: E-selectin ligand activity on KG1a and HL-60 cells; assay: Parallel-plate flow chamber: CHO-E cell rolling on fixed hematopoietic cell monolayers; format: cell-based, human; conditions: 2.8 dynes/cm^2, 3.8 dynes/cm^2
KG1a [3] = assay: KG1a cell viability by trypan blue exclusion; format: cell-based, human; conditions: KG1a after the treatment
LN HEV = assay: Lymphocyte adherence to frozen rat lymph node sections (LN HEV, positive control); format: cell-based
Description: Lymphocyte Adherence Assay. […] Cytocentrifuge preparations of KG1a or other cell lines were made on a Cytospin 3 Cytocentrifuge (Shandon Lipshaw, Pittsburgh, Pa.). Frozen rat LN sections […] thick were mounted on slides, and lymphocyte binding to LN HEV served as a positive control in all experiments.
Lymphocyte suspensions ([…]) were overlaid onto cytocentrifuge or LN sections in duplicate and placed on a rotating platform (80 rpm) at 4° C. for 30 minutes. Slides were then rinsed in cold PBS to remove non-adherent lymphocytes, fixed in 3% glutaraldehyde, and stained with methyl green-thionin. Slides were examined under the light microscope for adherence of lymphocytes to KG1a or LN HEV.

[4] = 24 h culture with inhibitor after 1 h neuraminidase (0.1 U/ml), tunicamycin 15 μg/ml, deoxymannojirimycin 0.4 mg/ml, swainsonine 40 μg/ml
[5] = inhibitor alone, 24 h, tunicamycin 15 μg/ml, deoxymannojirimycin 0.4 mg/ml, swainsonine 40 μg/ml
[6] = digestion then culture without inhibitor (neuraminidase 24 hour, bromelain 20 hour)
[7] = LYMPHOCYTE TREATMENT, 1 mM EDTA, 10 mM mannose-6-P, 10 mg/ml PPME, 5 mg/ml fucoidin, 10 ng/ml PMA
[8] = 20 hr culture, no neuraminidase pretreatment, tunicamycin 15 ug/ml, cycloheximide 1.25 ug/ml
[9] = after neuraminidase, 24 hr culture with chlorate 10 mM, 20 hr culture with tunicamycin 15 ug/ml or cycloheximide 1.25 ug/ml

T2 sequence (P16070 21-361 isoform P16070-12 limits assumed): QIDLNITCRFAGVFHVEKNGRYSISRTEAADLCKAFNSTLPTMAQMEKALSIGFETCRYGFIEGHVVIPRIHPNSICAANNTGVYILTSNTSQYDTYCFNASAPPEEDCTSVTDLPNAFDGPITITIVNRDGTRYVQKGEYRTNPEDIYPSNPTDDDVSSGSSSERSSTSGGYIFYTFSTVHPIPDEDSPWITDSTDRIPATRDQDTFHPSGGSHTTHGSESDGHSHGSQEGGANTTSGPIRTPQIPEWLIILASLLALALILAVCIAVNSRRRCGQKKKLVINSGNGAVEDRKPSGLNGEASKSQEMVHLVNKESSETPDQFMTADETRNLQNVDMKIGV

## CC(C)C[C@H](NC(=O)[C@@H](NC(=O)N[C@@H](Cc1ccccc1)C(=O)O)[C@@H]1CCN=C(N)N1)C(=O)N[C@H](C=O)Cc1ccccc1 [chymostatin]
KG1a [1]
  lymphocyte binding to KG1a (result in words): prevented chymotrypsin effects

## BMEC CD44: CD44 immunoprecipitated from human bone marrow endothelial cells
E-selectin; human bone marrow endothelial cells, Hermes-1 immunoprecipitate
  E-selectin ligand activity of immunoprecipitated CD44: did not possess any E-selectin ligand activity

## OC[C@H]1NC[C@@H](O)[C@@H](O)[C@@H]1O [Deoxymannojirimycin]
CD43
  return of the L60 epitope of CD43 after neuraminidase: not inhibited
KG1a cells; [4]
  % Control Adhesion: 22.5 % Control Adhesion
KG1a cells; Stamper-Woodruff assay
  L-selectin ligand (HCELL) activity of KG1a / lymphocyte adherence (result in words): markedly diminished
KG1a cells; [5]
  % Control Adhesion: 107.5 % Control Adhesion

## O=S(=O)(F)Cc1ccccc1 [PMSF]
KG1a [1]
  lymphocyte binding to KG1a (result in words): prevented chymotrypsin effects

## O[C@H]1[C@H]2[C@H](O)CCCN2C[C@H]1O [Swainsonine]
CD43
  return of the L60 epitope of CD43 after neuraminidase: not inhibited
KG1a cells; [4]
  % Control Adhesion: 26.6 % Control Adhesion
KG1a cells; Stamper-Woodruff assay
  L-selectin ligand (HCELL) activity of KG1a / lymphocyte adherence (result in words): markedly diminished
KG1a cells; [5]
  % Control Adhesion: 95.5 % Control Adhesion

## KG1a CD44: HECA-452-reactive CD44 glycoform of KG1a, hematopoietic cell E-selectin/L-selectin ligand
E-selectin
  E-selectin-mediated CHO-E cell rolling on immunoprecipitated protein spotted onto plastic dishes: rolling was observed

## Neuraminidase: neuraminidase (sialidase), V. cholerae, Boehringer Mannheim
KG1a CD44
  E-selectin ligand activity (CHO-E cell rolling) of KG1a membrane proteins / CD44 after treatment: markedly ablated CHO-E cell rolling
[2]
  E-selectin ligand activity (CHO-E cell rolling) on KG1a and HL-60 cells: no activity
KG1a [3]
  Cell viability (trypan blue exclusion): > 99%
KG1a cells; Neuraminidase 1 h then 24 h recovery
  % Control Adhesion: 99.3 % Control Adhesion
KG1a cells; Neuraminidase (1 h), 0.1 U/ml
  % Control Adhesion: 1.0 % Control Adhesion
KG1a cells; [6]
  Mean % Control Binding: 101.3 % Control Binding
KG1a cells; t = 0, no culture
  Mean % Control Binding: 0.2 % Control Binding
KG1a [1]
  lymphocyte binding to KG1a (result in words): abrogated binding
KG1a [1]; KG1A TREATMENT
  Lymphocyte Adherence to KG1a, Mean of Binding (% of untreated control): 3.1 % of Untreated Control
KG1a [1]; KG1a treatment, t = 0, no culture
  Lymphocyte Adherence to KG1a, Mean of Binding (% of untreated control): 0.02 % of untreated control
KG1a [1]; neuraminidase then 24 hr culture
  Lymphocyte Adherence to KG1a, Mean of Binding (% of untreated control): 101.3 % of untreated control
LN HEV
  lymphocyte binding to LN control sections / LN HEV (result in words): abrogated binding

## O=C(O)CN(CCN(CC(=O)O)CC(=O)O)CC(=O)O [EDTA]
KG1a CD44
  E-selectin ligand activity (CHO-E cell rolling) of KG1a membrane proteins / CD44 after treatment: no evidence of E-selectin-mediated adhesive interactions; also recorded: prevented CHO-E rolling
[2]
  E-selectin ligand activity (CHO-E cell rolling) on KG1a and HL-60 cells: completely inhibited; also recorded: no activity
KG1a cells
  L-selectin ligand (HCELL) activity of KG1a / lymphocyte adherence (result in words): complete elimination
KG1a [1]
  lymphocyte binding to KG1a (result in words): completely inhibited
KG1a [1]; [7]
  Lymphocyte Adherence to KG1a, Mean of Binding (% of untreated control): 0.3 % of Untreated Control
LN HEV
  lymphocyte binding to LN control sections / LN HEV (result in words): completely inhibited

## Human Neutrophil Elastase: protease
KG1a cells; Stamper-Woodruff assay
  L-selectin ligand (HCELL) activity of KG1a / lymphocyte adherence (result in words): partially affects activity
KG1a cells
  L-selectin ligand Activity of KG1a Cells Following Protease or Phospholipase C Treatment, % Control Binding: 25.4 % Control Binding

## O=C[C@@H](O)[C@@H](O)[C@H](O)[C@H](O)COP(=O)(O)O [Mannose-6-P, D-mannose-6-phosphate]
KG1a [1]
  lymphocyte binding to KG1a (result in words): inhibited
KG1a [1]; [7]
  Lymphocyte Adherence to KG1a, Mean of Binding (% of untreated control): 5.7 % of Untreated Control
LN HEV
  lymphocyte binding to LN control sections / LN HEV (result in words): inhibited

## Bromelain
KG1a cells; Stamper-Woodruff assay
  L-selectin ligand (HCELL) activity of KG1a / lymphocyte adherence (result in words): completely abrogates
KG1a cells; [6]
  Mean % Control Binding: 95.2 % Control Binding
KG1a cells
  L-selectin ligand Activity of KG1a Cells Following Protease or Phospholipase C Treatment, % Control Binding: 3.8 % Control Binding
KG1a cells; t = 0, no culture
  Mean % Control Binding: 3.8 % Control Binding
KG1a [1]
  lymphocyte binding to KG1a (result in words): abrogated binding
KG1a [1]; KG1A TREATMENT
  Lymphocyte Adherence to KG1a, Mean of Binding (% of untreated control): 3.8 % of Untreated Control
LN HEV
  lymphocyte binding to LN control sections / LN HEV (result in words): abrogated binding

## Fucoidin
KG1a [1]
  lymphocyte binding to KG1a (result in words): inhibited
KG1a [1]; [7]
  Lymphocyte Adherence to KG1a, Mean of Binding (% of untreated control): 1.4 % of Untreated Control
LN HEV
  lymphocyte binding to LN control sections / LN HEV (result in words): inhibited

## C[C@@H]1C[C@@H]([C@H](O)CC2CC(=O)NC(=O)C2)C(=O)[C@@H](C)C1 [Cycloheximide]
KG1a cells; 20 hour culture with cycloheximide 1.25 μg/ml, no neuraminidase or bromelain digestion
  Mean % Control Binding: 91.8 % Control Binding
KG1a cells; after bromelain, 20 hour culture with cycloheximide 1.25 μg/ml
  Mean % Control Binding: 0.6 % Control Binding
KG1a cells; after neuraminidase, 20 hour culture with cycloheximide 1.25 μg/ml
  Mean % Control Binding: 0.5 % Control Binding
KG1a [1]; [8]
  Lymphocyte Adherence to KG1a, Mean of Binding (% of untreated control): 91.8 % of untreated control
KG1a [1]
  return of binding activity following desialylation: blocked
KG1a [1]; [9]
  Lymphocyte Adherence to KG1a, Mean of Binding (% of untreated control): 0.5 % of untreated control

## Tunicamycin
CD43
  return of the L60 epitope of CD43 after neuraminidase: not inhibited
KG1a cells; [4]
  % Control Adhesion: 1.0 % Control Adhesion
KG1a cells; Stamper-Woodruff assay
  L-selectin ligand (HCELL) activity of KG1a / lymphocyte adherence (result in words): completely prevented ligand re-expression
KG1a cells; [5]
  % Control Adhesion: 96.5 % Control Adhesion
KG1a [1]; [8]
  Lymphocyte Adherence to KG1a, Mean of Binding (% of untreated control): 106.2 % of untreated control
KG1a [1]
  return of binding activity following desialylation: blocked
KG1a [1]; [9]
  Lymphocyte Adherence to KG1a, Mean of Binding (% of untreated control): 0.4 % of untreated control

## Chymotrypsin
KG1a cells; Stamper-Woodruff assay
  L-selectin ligand (HCELL) activity of KG1a / lymphocyte adherence (result in words): completely abrogates
KG1a cells
  L-selectin ligand Activity of KG1a Cells Following Protease or Phospholipase C Treatment, % Control Binding: 6.7 % Control Binding
KG1a [1]
  lymphocyte binding to KG1a (result in words): abrogated binding
KG1a [1]; KG1A TREATMENT
  Lymphocyte Adherence to KG1a, Mean of Binding (% of untreated control): 6.7 % of Untreated Control
LN HEV
  lymphocyte binding to LN control sections / LN HEV (result in words): abrogated binding

B1: KG1a PSGL-1: P-selectin glycoprotein ligand-1 immunoprecipitated (4H10 moAb) from KG1a (protein, UniProt Q14242 42-412, looked up)
P-selectin glycoprotein …: QATEYEYLDYDFLPETEPPEMLRNSTDTTPLTGPGTPESTTVEPAARRSTGLDAGGAVTELTTELANMGNLSTDSAAMEIQTTQPAATEAQTTQPVPTEAQTTPLAATEAQTTRLTATEAQTTPLAATEAQTTPPAATEAQTTQPTGLEAQTTAPAAMEAQTTAPAAMEAQTTPPAAMEAQTTQTTAMEAQTTAPEATEAQTTQPTATEAQTTPLAAMEALSTEPSATEALSMEPTTKRGLFIPFSVSSVTHKGIPMAASNLSVNYPVGAPDHISVKQCLLAILILALVATIFFVCTVVLAVRLSRKGHMYPVRNYSPTEMVCISSLLPDGGEGPSATANGGLSKAKSPGLTPEPREDREGDDLTLHSFLP
modifications: KG1a cell glycoform
notes: P-selectin glycoprotein ligand-1 immunoprecipitated (4H10 moAb) from KG1a
E-selectin
  E-selectin-mediated CHO-E cell rolling on immunoprecipitated protein spotted onto plastic dishes: no binding was observed
E-selectin; lower shear force of 0.6 dynes/cm^2
  CHO-E rolling on immunoprecipitated protein: did occur
